The source of these data is paper PMC3242765, “Inhibitors of Alphavirus Entry and Replication Identified with a Stable Chikungunya Replicon Cell Line and Virus-Based Assays” (PLoS ONE, 2011).

“Also recorded” adds a separate entry of the source. Where two headings read alike, the source gives them in different places.

One assay relates to BHK-CHIKV-NCT cells. Kind of assay: Cell viability ATP assay, BHK-CHIKV-NCT cells. In kind it is cell-based, hamster.
In the next assay the test system is BHK cells. The assay is described as follows: Cell viability ATP assay, BHK cells. In kind it is cell-based, hamster. The note with it: Mesocricetus auratus, BHK, 48 h, read-out: Cell viability IC50.
The subject of assay [1] is SFV. Kind of assay: CPE reduction assay, SFV (WST-1). In kind it is cell-based, Semliki Forest virus (SFV). The note with it: Semliki Forest virus, BHK, 22 h, read-out: SFV IC50 (CPE reduction). In general terms: Tetrazolium dyes change colour on reduction, which living cells bring about.
The test system of a further assay is SINV. Kind of assay: CPE reduction assay, SINV (WST-1). It is filed as cell-based, Sindbis virus (SINV). The note with it: Sindbis virus, BHK, 24 h, read-out: SINV IC50 (CPE reduction).
Assay [2] deals with SFV. Kind of assay: Viral yield analysis using a plaque assay. In kind it is cell-based, Semliki Forest virus (SFV). The note with it: for SFV yield: BHK cells, MOI 0.01, 50 µM compound, 16 h, untreated control 1.4×10^9 PFU/ml.
A further assay relates to CHIKV-Rluc. The assay is described as follows: microbe, parasite or virus in culture. In kind it is cell-based, Chikungunya virus (CHIKV). The note with it: Chikungunya virus, BHK, 16 h, read-out: CHIKV-Rluc IC50.
For assay [3], the system named is CHIKV. The note with it: cited from earlier work.
Assay [4] relates to SFV-Rluc. The assay is described as follows: microbe, parasite or virus in culture. The note with it: Semliki Forest virus, BHK; for IC50: 14 h, read-out: SFV IC50.
The test system of a further assay is CHIKV replicon. The assay is described as follows: microbe, parasite or virus in culture. In kind it is cell-based, Chikungunya virus (CHIKV). The note with it: for IC50: Chikungunya virus, 48 h.
Another assay has as its system SFVts9-Rluc. In kind it is cell-based, Semliki Forest virus (SFV).
Assay [5] concerns SFV-Rluc.
Assay [6] relates to CHIKV. The note with it: 2006 La Réunion outbreak; cited from earlier work.
The mark [7] stands for this setting: Mesocricetus auratus, 48 h, read-out: Cell viability IC50, ATP assay, 48 h exposure of BHK-CHIKV-NCT cells, up to 200 µM.

As a reminder, the inhibition is how much of the control response was suppressed. For the compound `O=c1cnn([C@@H]2O[C@H](CO)[C@@H](O)[C@H]2O)c(=O)[nH]1` [6-Azauridine], the IC50 with BHK-CHIKV-NCT cells (setting [7]) is greater than 200 µM; with BHK cells it was greater than 200 µM; in the assay with SFV [1], greater than 200 µM; with SINV, greater than 200 µM; in the assay with CHIKV-Rluc, 29.7 µM; with CHIKV [3] (approximate conversion of 0.2 µg/ml, read-out: previously reported potency for CHIKV, converted), roughly 0.8 µM. Also, in the assay with SFV-Rluc [4], the IC50 is greater than 200 µM. In addition, the SFV yield with SFV [2] is on record as 9.1×10^7 PFU/ml. In addition, in the assay on CHIKV [3], the “previously reported potency for CHIKV” value was 0.2 µg/mL. Further, in the assay on SFV-Rluc [4] (read-out: Inhibition of SFV-Rluc), the inhibition at 200 µM turned out to be 40%.

Take `CCN(CC)CCCC(C)Nc1ccnc2cc(Cl)ccc12` (centres unmarked) [Chloroquine]: the “CHIKV replicon % left” value in the assay on CHIKV replicon amounted to 104.4%. Besides, the “Suppression of CHIKV replicon (in words)” value with CHIKV replicon is reported as “no suppression of replicon propagation; also recorded: has no effect on CHIKV replicon”. In addition, the IC50 in the assay on BHK cells was greater than 200 µM; with SFV [1], 8.2 µM; with SINV, 11.3 µM; in the assay with SFV-Rluc [4], 13.4 µM. Further, the “Decrease of SFV titer versus untreated control” value in the assay on SFV [2] (50 µM compound, MOI 0.01, 16 h) is on record as “two orders of magnitude”. In addition, the SFV yield in the assay with SFV [2] is listed as 3.3×10^7 PFU/ml. In addition, the “Effect on Rluc signal of SFVts9-Rluc (entry)” value with SFVts9-Rluc is on record as “dose-dependent inhibition of Rluc signal”. For the same compound, in the assay on SFV-Rluc [5], the “SFV replication % left (surviving fraction, remaining percentage of SFV replication)” value is reported as 12.2%. Moreover, in the assay with SFV-Rluc [5], the “SI (selectivity index)” value is reported as greater than 14.9. In addition, the “Clinical efficacy in acute CHIKV viremia (duration of viremia, severity and duration of symptoms)” value with CHIKV [6] was “failed to show any benefits”.

With `O=c1cc(-c2ccccc2)oc2cc(O)cc(O)c12` [Chrysin], in the assay with CHIKV replicon, the “CHIKV replicon % left” value is listed as 13.8%. Also, the IC50 was 46.8 µM in the assay on CHIKV replicon (read-out: EGFP IC50); 50.2 µM in the assay on CHIKV replicon (read-out: Rluc IC50); greater than 200 µM in the assay with BHK-CHIKV-NCT cells (setting [7]); greater than 200 µM with BHK cells; 22.9 µM in the assay on SFV [1]; 43.3 µM in the assay on SINV. Also, the IC50 amounted to 127 µM in the assay with CHIKV-Rluc and 13.7 µM in the assay with SFV-Rluc [4]. In addition, the SFV yield in the assay on SFV [2] is 2.9×10^8 PFU/ml. The “Effect on SFV entry (Rluc activity)” value with SFVts9-Rluc is “None of the other compounds, including the flavonoids apigenin, chrysin, naringenin and silybin, inhibited SFV entry”. For the same compound, the “SFV replication % left (surviving fraction, remaining percentage of SFV replication)” value with SFV-Rluc [5] stood at 18.1%. Moreover, in the assay on SFV-Rluc [5], the “SI (selectivity index)” value is greater than 14.6.

In the case of `O=C1C[C@@H](c2ccc(O)cc2)Oc2cc(O)cc(O)c21` [Naringenin], in the assay with CHIKV replicon, the “CHIKV replicon % left” value was found to be 6.2%. Further, the IC50 was determined as 25.8 µM with CHIKV replicon (read-out: EGFP IC50); 30 µM with CHIKV replicon (read-out: Rluc IC50); 104 µM in the assay on BHK-CHIKV-NCT cells (setting [7]); 122 µM in the assay with BHK-CHIKV-NCT cells (read-out: Cell viability IC50, ATP assay, 48 h exposure of BHK-CHIKV-NCT cells, up to 200 µM); 94.1 µM in the assay on BHK cells; 19.3 µM in the assay on SFV [1]. The IC50 with SINV worked out at 21.2 µM; with CHIKV-Rluc it was 118 µM; in the assay with SFV-Rluc [4], 2.2 µM. For the same compound, the SFV yield in the assay on SFV [2] is given as 8.2×10^7 PFU/ml. In addition, the “Effect on SFV entry (Rluc activity)” value in the assay with SFVts9-Rluc was “None of the other compounds, including the flavonoids apigenin, chrysin, naringenin and silybin, inhibited SFV entry”. Moreover, the “SFV replication % left (surviving fraction, remaining percentage of SFV replication)” value with SFV-Rluc [5] is reported as -0.0736%. In addition, in the assay with SFV-Rluc [5], the “SI (selectivity index)” value turned out to be 42.8.

For `COc1cc(C2Oc3cc([C@H]4Oc5cc(O)cc(O)c5C(=O)[C@@H]4O)ccc3OC2CO)ccc1O` (some centres unmarked) [Silybin], in the assay on CHIKV replicon, the “CHIKV replicon % left” value is 14.1%. Further, the IC50 was 71.1 µM in the assay with CHIKV replicon (read-out: EGFP IC50); 59.8 µM with CHIKV replicon (read-out: Rluc IC50); greater than 200 µM in the assay with BHK-CHIKV-NCT cells (setting [7]); greater than 200 µM in the assay on BHK cells; 9.6 µM with SFV [1]; 22.6 µM in the assay with SINV. Besides, the IC50 in the assay with CHIKV-Rluc amounted to 92.3 µM; in the assay with SFV-Rluc [4], 16.4 µM. Besides, the SFV yield in the assay with SFV [2] is 3.7×10^8 PFU/ml. Also, in the assay on SFVts9-Rluc, the “Effect on SFV entry (Rluc activity)” value is “None of the other compounds, including the flavonoids apigenin, chrysin, naringenin and silybin, inhibited SFV entry”. The “SFV replication % left (surviving fraction, remaining percentage of SFV replication)” value with SFV-Rluc [5] stood at 22.4%. In addition, in the assay on SFV-Rluc [5], the “SI (selectivity index)” value was greater than 12.2.
